Laboratory results from article PMC10435442, “Developing multitarget coumarin based anti-breast cancer agents: synthesis and molecular modeling study” (Scientific Reports, 2023).
≈ marks a conversion by molar mass, not a printed value. Where “and” joins values, the source holds several entries; their conditions need not be identical. Equal entries are not always repeated. Where two headings read alike, the source gives them in different places.

Assays:
in vitro = details: human, MCF-10A cells (nonmalignant breast)
MDA-MB-231 [1] = test: DNA flow cytometric cell cycle analysis, MDA-MB-231; format: cell-based, human; details: for Comment (cell cycle phase of growth arrest) / DNA content %G0-G1 / DNA content %Pre-G1 / DNA content %S: MDA; for %G0-G1 / %Pre-G1 / %S: MDA-MB-231, IC50 concentration; for cell cycle arrest at S phase / increase of apoptotic cells in pre-G1 phase: MDA-MB-231, compared to control
Bax = Bax level (ELISA) in treated cells; format: cell-based, human; details: MDA-MB-231 cells
MDA-MB-231 [2] = test: MTT cytotoxicity assay, MDA-MB-231; details: for IC50: Homo sapiens; for % viability: MDA
MDA-MB-231 [3] = test: Annexin V-FITC/PI dual staining apoptosis assay, MDA-MB-231; format: cell-based, human; details: for Apoptosis Early / Apoptosis Late / Apoptosis Total / Necrosis: MDA; for % Apoptosis Early / % Apoptosis Late / % Apoptosis Total / % Necrosis: MDA-MB-231
EGFR = EGFR (Homo sapiens, UniProt P00533); test: In vitro EGFR enzyme inhibition assay (ELISA)
Chain of EGFR (P00533 25-1210): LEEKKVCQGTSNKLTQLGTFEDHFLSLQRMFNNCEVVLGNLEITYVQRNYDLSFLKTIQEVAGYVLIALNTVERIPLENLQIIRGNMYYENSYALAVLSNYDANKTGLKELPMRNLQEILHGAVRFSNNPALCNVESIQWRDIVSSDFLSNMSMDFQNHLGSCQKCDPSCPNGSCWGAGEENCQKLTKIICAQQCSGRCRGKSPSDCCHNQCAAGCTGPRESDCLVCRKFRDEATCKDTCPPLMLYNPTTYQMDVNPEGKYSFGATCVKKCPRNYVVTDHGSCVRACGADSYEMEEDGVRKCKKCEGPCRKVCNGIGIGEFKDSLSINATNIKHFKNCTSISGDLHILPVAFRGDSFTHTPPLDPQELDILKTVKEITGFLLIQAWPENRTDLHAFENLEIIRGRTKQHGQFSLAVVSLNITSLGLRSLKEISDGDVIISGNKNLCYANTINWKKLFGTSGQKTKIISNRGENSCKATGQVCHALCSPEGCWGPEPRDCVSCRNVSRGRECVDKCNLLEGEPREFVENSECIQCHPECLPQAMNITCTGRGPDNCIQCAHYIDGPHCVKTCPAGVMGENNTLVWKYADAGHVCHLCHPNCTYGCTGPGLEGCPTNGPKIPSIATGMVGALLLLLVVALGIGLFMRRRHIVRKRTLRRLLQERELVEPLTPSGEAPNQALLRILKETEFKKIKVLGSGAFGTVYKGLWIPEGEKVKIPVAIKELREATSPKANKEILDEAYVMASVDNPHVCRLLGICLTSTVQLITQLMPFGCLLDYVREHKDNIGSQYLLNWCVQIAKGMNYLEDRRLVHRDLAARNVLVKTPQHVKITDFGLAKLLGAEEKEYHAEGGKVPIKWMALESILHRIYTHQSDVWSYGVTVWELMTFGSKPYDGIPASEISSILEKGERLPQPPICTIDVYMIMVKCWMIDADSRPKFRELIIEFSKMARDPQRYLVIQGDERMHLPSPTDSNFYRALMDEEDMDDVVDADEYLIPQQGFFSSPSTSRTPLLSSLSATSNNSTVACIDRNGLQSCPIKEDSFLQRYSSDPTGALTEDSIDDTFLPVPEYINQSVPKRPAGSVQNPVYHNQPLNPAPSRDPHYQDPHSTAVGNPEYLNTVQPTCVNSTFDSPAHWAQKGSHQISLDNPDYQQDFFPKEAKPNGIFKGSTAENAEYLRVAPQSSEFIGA

MCF-7 = test: MTT cytotoxicity assay, MCF-7; details: for IC50: Homo sapiens
Bcl-2 = Bcl-2 level (ELISA) in treated cells; format: cell-based, human; details: MDA-MB-231 cells
MCF-10A = test: MTT cytotoxicity assay, nonmalignant MCF-10A; details: read-out: MCF-10A IC50; MTT, nonmalignant MCF-10A;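 note: MTT assay with absorbance read at 570 nm after 48 h exposure of cells to serial compound concentrations at 37 °C, testing selectivity against nonmalignant versus cancer cells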
Caspase-9 = Caspase-9 level (ELISA) in treated cells; format: cell-based, human; details: MDA-MB-231 cells
[4] = MDA-MB-231, read-out: MDA-MBA-231 IC50
[5] = MDA-MB-231, read-out: cytotoxicity_IC50 MDA
[6] = EGFR IC50, lab report 01-11-2021, 10 compounds
[7] = MCF7, read-out: cytotoxicity_IC50 mcf7

O=C(COc1ccc2c(COC(=O)c3ccc(Cl)cc3)cc(=O)oc2c1)c1ccc(Cl)cc1 [Compound 10, {7-[2-(4-Chlorophenyl)-2-oxoethoxy]-2-oxo-2H-chromen-4-yl}methyl 4-chlorobenzoate]
IC50 at 48 h (in vitro): 37.1 ± 1.81 µg/mL (≈ 76.8 µM)
viability at 48 h, 0.4 ug (in vitro): 82.6%
viability at 48 h, 1.6 ug (in vitro): 69.1%
viability at 48 h, 6.25 ug (in vitro): 61.1%
viability at 48 h, 25 ug (in vitro): 52.6%
viability at 48 h, 100 ug (in vitro): 44.4%
Comment (cell cycle phase of growth arrest) (MDA-MB-231 [1]): cell growth arrest@ S
DNA content %G0-G1 (MDA-MB-231 [1]): 51.97%
DNA content %Pre-G1 (MDA-MB-231 [1]): 33.43%
DNA content %S (MDA-MB-231 [1]): 43.82%
%G0-G1 (MDA-MB-231 [1]): 51.97^ad ^AC %
%Pre-G1 (MDA-MB-231 [1]): 33.43^bdf ^AB %
%S (MDA-MB-231 [1]): 43.82^bc ^D %
cell cycle arrest at S phase (MDA-MB-231 [1]): 1.59 folds
increase of apoptotic cells in pre-G1 phase (MDA-MB-231 [1]): 16.22 folds
Bax Conc (Bax): 0.249±0.0079^be ng/ml
IC50 (MDA-MB-231 [2]; [4]): 2.3 ± 0.06 µM
IC50 (MDA-MB-231 [2]; [5]): 1.09 ± 0.06 µg/mL
% viability (MDA-MB-231 [2]; 0.4ug (log conc. -0.41)): 56.384%
% viability (MDA-MB-231 [2]; 1.6ug (log conc. 0.19)): 47.375%
% viability (MDA-MB-231 [2]; 6.25ug (log conc. 0.8)): 40.274%
% viability (MDA-MB-231 [2]; 25ug (log conc. 1.4)): 30.609%
% viability (MDA-MB-231 [2]; 100ug (log conc. 2)): 23.5084%
Apoptosis Early (MDA-MB-231 [3]): 9.61
Apoptosis Late (MDA-MB-231 [3]): 17.83
Apoptosis Total (MDA-MB-231 [3]): 33.43
Necrosis (MDA-MB-231 [3]): 5.99
% Apoptosis Early (MDA-MB-231 [3]): 9.61^df %
% Apoptosis Late (MDA-MB-231 [3]): 17.83^df %
% Apoptosis Total (MDA-MB-231 [3]): 33.43% and 33.43^df %
% Necrosis (MDA-MB-231 [3]): 5.99%
IC50 (EGFR; [6]): 0.0869 µM
IC50 (EGFR; EGFR inhibition IC50): 0.086 ± 0.006 µM
Percentage above Reference IC50 (potency relative to erlotinib) (EGFR; reference Erlotinib): 97.67% and 97.674%
IC50 (MCF-7; MCF7, read-out: MCF-7 IC50): 95.8 ± 2.81 µM
IC50 (MCF-7; [7]): 46.3 ± 2.81 µg/mL
% viability (MCF-7; MCF7, 0.4ug): 85.616%
% viability (MCF-7; MCF7, 1.6ug): 73.288%
% viability (MCF-7; MCF7, 6.3ug): 64.521%
% viability (MCF-7; MCF7, 25ug): 54.315%
% viability (MCF-7; MCF7, 100ug): 44.863%
Bcl-2 Conc (Bcl-2): 4.088±0.058^cf ng/ml
IC50 (MCF-10A): 76.8 ± 1.81 µM
Caspase-9 Conc. (Caspase-9): 16.77±0.37^be ng/ml

COc1ccccc1C(=O)OCc1cc(=O)oc2cc(OCC(=O)c3ccc(Cl)cc3)ccc12 [Compound 12, {7-[2-(4-Chlorophenyl)-2-oxoethoxy]-2-oxo-2H-chromen-4-yl}methyl 2-methoxybenzoate]
IC50 at 48 h (in vitro): 34.5 ± 1.68 µg/mL (≈ 72 µM)
viability at 48 h, 0.4 ug (in vitro): 81.4%
viability at 48 h, 1.6 ug (in vitro): 75.8%
viability at 48 h, 6.25 ug (in vitro): 62.5%
viability at 48 h, 25 ug (in vitro): 55%
viability at 48 h, 100 ug (in vitro): 39.6%
Comment (cell cycle phase of growth arrest) (MDA-MB-231 [1]): cell growth arrest@ G1/S
DNA content %G0-G1 (MDA-MB-231 [1]): 63.58%
DNA content %Pre-G1 (MDA-MB-231 [1]): 46.28%
DNA content %S (MDA-MB-231 [1]): 29.97%
%G0-G1 (MDA-MB-231 [1]): 63.58^abc ^ADE %
%Pre-G1 (MDA-MB-231 [1]): 46.28^cdg ^ABC %
%S (MDA-MB-231 [1]): 29.97 ^BDF %
cell cycle arrest at S phase (MDA-MB-231 [1]): 1.08 folds
increase of apoptotic cells in pre-G1 phase (MDA-MB-231 [1]): 22.46 folds
Bax Conc (Bax): 0.36±0.0118^cef ng/ml
IC50 (MDA-MB-231 [2]; [4]): 3.5 ± 0.09 µM
IC50 (MDA-MB-231 [2]; [5]): 1.71 ± 0.09 µg/mL
% viability (MDA-MB-231 [2]; 0.4ug (log conc. -0.41)): 56.517%
% viability (MDA-MB-231 [2]; 1.6ug (log conc. 0.19)): 51.229%
% viability (MDA-MB-231 [2]; 6.25ug (log conc. 0.8)): 44.231%
% viability (MDA-MB-231 [2]; 25ug (log conc. 1.4)): 36.538%
% viability (MDA-MB-231 [2]; 100ug (log conc. 2)): 26.8697%
Apoptosis Early (MDA-MB-231 [3]): 16.75
Apoptosis Late (MDA-MB-231 [3]): 23.02
Apoptosis Total (MDA-MB-231 [3]): 46.28
Necrosis (MDA-MB-231 [3]): 6.51
% Apoptosis Early (MDA-MB-231 [3]): 16.75^beg %
% Apoptosis Late (MDA-MB-231 [3]): 23.02^eg %
% Apoptosis Total (MDA-MB-231 [3]): 46.28% and 46.28^be %
% Necrosis (MDA-MB-231 [3]): 6.51%
IC50 (EGFR; EGFR IC50, lab report 01-09-2021, 04 compounds, reference Erlotinib): 0.177 µM
IC50 (EGFR; EGFR inhibition IC50): 0.177 ± 0.0018 µM
inhibition at 10 pg/mL (EGFR; read-out: EGFR %inh): 32%
inhibition at 0.0001 µg/mL (EGFR; read-out: EGFR %inh): 50%
inhibition at 0.001 µg/mL (EGFR; read-out: EGFR %inh): 73%
inhibition at 0.01 µg/mL (EGFR; read-out: EGFR %inh): 88%
Percentage above Reference IC50 (potency relative to erlotinib) (EGFR; reference Erlotinib): 81.92%
IC50 (MCF-7; MCF7, read-out: MCF-7 IC50): 13.2 ± 0.38 µM
IC50 (MCF-7; [7]): 6.33 ± 0.38 µg/mL
% viability (MCF-7; MCF7, 0.4ug): 65.22%
% viability (MCF-7; MCF7, 1.6ug): 57.537%
% viability (MCF-7; MCF7, 6.3ug): 50.147%
% viability (MCF-7; MCF7, 25ug): 44.457%
% viability (MCF-7; MCF7, 100ug): 33.0205%
Bcl-2 Conc (Bcl-2): 2.934±0.154^be ng/ml
IC50 (MCF-10A): 72.1 ± 1.68 µM
Caspase-9 Conc. (Caspase-9): 19.16±0.41^df ng/ml

CC(=O)Oc1ccc2c(COC(=O)c3ccccc3)cc(=O)oc2c1 [Compound 13, (7-Acetoxy-2-oxo-2H-chromen-4-yl)methyl benzoate]
IC50 at 48 h (in vitro): 166 ± 8.1 µg/mL (≈ 491 µM)
viability at 48 h, 0.4 ug (in vitro): 89.7%
viability at 48 h, 1.6 ug (in vitro): 81.1%
viability at 48 h, 6.25 ug (in vitro): 73.6%
viability at 48 h, 25 ug (in vitro): 63.3%
viability at 48 h, 100 ug (in vitro): 52.2%
IC50 (MDA-MB-231 [2]; [4]): 30.7 ± 0.56 µM
IC50 (MDA-MB-231 [2]; [5]): 10.4 ± 0.56 µg/mL
% viability (MDA-MB-231 [2]; 0.4ug (log conc. -0.41)): 65.76%
% viability (MDA-MB-231 [2]; 1.6ug (log conc. 0.19)): 58.55%
% viability (MDA-MB-231 [2]; 6.25ug (log conc. 0.8)): 52.297%
% viability (MDA-MB-231 [2]; 25ug (log conc. 1.4)): 46.9551%
% viability (MDA-MB-231 [2]; 100ug (log conc. 2)): 38.515%
IC50 (EGFR; [6]): 0.364 µM
IC50 (EGFR; EGFR inhibition IC50): 0.363 ± 0.02 µM
Percentage above Reference IC50 (potency relative to erlotinib) (EGFR; reference Erlotinib): 23.14%
IC50 (MCF-7; MCF7, read-out: MCF-7 IC50): 111 ± 2.28 µM
IC50 (MCF-7; [7]): 37.6 ± 2.28 µg/mL
% viability (MCF-7; MCF7, 0.4ug): 80.82%
% viability (MCF-7; MCF7, 1.6ug): 70.97%
% viability (MCF-7; MCF7, 6.3ug): 64.282%
% viability (MCF-7; MCF7, 25ug): 55.0733%
% viability (MCF-7; MCF7, 100ug): 40.88%
IC50 (MCF-10A): 490 ± 8.1 µM
